Measurements: ChEMBL document CHEMBL1150800, “Multiple-dose escalation study of the safety, pharmacokinetics, and biologic activity of oral AMD070, a selective CXCR4 receptor inhibitor, in human subjects” (Antimicrob Agents Chemother, 2007)
In brackets after ≈: the same amount, converted by molar mass.

Tested on: Human immunodeficiency virus 1
Test: Antiviral activity against HIV1 NL4.3 in human MT4 cells
Format: functional, organism-based
Settings: Human immunodeficiency virus 1, MT4

c1cc(CN2CCCNCCNCCCNCC2)ccc1CN1CCCNCCNCCCNCC1 [PLERIXAFOR]
IC50: 1.5 ng/mL (≈ 2.98 nM)
